Test results from article PMC3003761 (ACS chemical biology, 2010).
Read-outs that look alike come from different tables or passages of the source.

Key:
[1] = system: rat phrenic nerve-hemidiaphragm preparations; details: cited from earlier work
[2] = system: serotype A botulinum neurotoxin-induced paralysis of mouse phrenic nerve-hemidiaphragm preparations
Shaker-IR KV channel = Shaker-IR KV channel (Drosophila melanogaster, UniProt P08510, DEL6-46); assay: cell-based
[3] = mouse, in vivo, ip, 3 mg/kg
BoNT/A = format: in vivo, mouse; details: n = 10
[4] = mouse, in vivo
in vivo = details: male, CD-1, mouse, ip, 3 mg/kg

Structure (SMILES) | Ability to reverse BoNT/A-induced muscle paralysis [2] | Hill coefficient (Shaker-IR KV channel) | IC50 (Shaker-IR KV channel) [µM] | Rescue of BoNT/A intoxicated mice (BoNT/A) | toxicity (distress) after compound alone [4] | Tmax (in vivo) [min] | half-life (in vivo) [min] | also measured
C[n+]1ccc(N)c(N)c1 [Compound 4, 3,4-diamino-1-methylpyridinium] |  |  |  |  |  |  |  | activity in rat phrenic nerve-hemidiaphragm preparations [1]: inactive
c1cc2nc[nH]c2cn1 [Compound 7, 5-azabenzimidazole] | unable to reverse BoNT/A-induced muscle paralysis |  |  |  |  |  |  | 
Nc1cncc(N)c1N [Compound 5, 3,4,5-Triaminopyridine] |  | 1.09 ± 0.13 | 697 | as effective as 3,4-DAP | no distress was observed | 30 | 18.6 | brain exposure [3]: no detectable brain exposure
CC[N+](CC)(CC)CCCc1ccccc1 [Compound 12, triethyl-3-phenylpropylammonium] | apparent neurotoxicity of the compound 12 prevented determination |  |  |  |  |  |  | 
Nc1ccncc1N [Compound 3, 3,4 diaminopyridine, reference compound] |  | 1.04 ± 0.18 | 26.7 ± 4 |  |  | 30 | 20.4 | 
C#CC[n+]1ccc(N)c(N)c1 [Compound 11, 3,4-diamino-1-(prop-2-ynyl)pyridinium] |  | 1.28 ± 0.34 |  | low efficacy | no distress was observed |  |  | IC50 (Shaker-IR KV channel; read-out: K0.5 (compound concentration required to achieve 50% inhibition)): 22.2 ± 4.3 µM; AUC(0-infinity) (plasma) [3]: 620 ng·h/mL; Cmax (plasma) [3]: 402 ng/mL; Tmax (plasma) [3]: 30 min; brain exposure as percentage of the plasma exposure [3]: 13%; plasma half-life [3]: 72 min
